Reference: patent publication US7687603B2, “Guanidinium delivery carriers” (priority 2005, dated 2010)
Numbered stars: 1 amine (or outer) side, 2 acyl side, 3 side chain; on linkers, the order of the positions; unused ones are H or OH. Side chains are listed from the residue outwards. Peptide text beside a SMILES is read from it. * marks the point of attachment. Doxorubicin(3'-N) = COc1cccc2c1C(=O)c1c(O)c3c(c(O)c1C2=O)C[C@@](O)(C(=O)CO)C[C@@H]3O[C@H]1C[C@H](N*)[C@H](O)[C@H](C)O1; Suc = O=C(CCC(=O)[*:2])[*:1]

Legend:
[1] = Body weight changes after intra-tumor administration; type: in vivo, nu/nu athymic mice; settings: 21 days after intra-tumor administration
Description: (§1) Male nu/nu athymic mice (6-7 weeks old; 22-25 g; available from Charles River Laboratories) were inoculated subcutaneously on the right flank with 1.1×10^6 Hela and PC-3 cells to obtain xenografs of human PC-3 prostate cancer.
(§2) Approximately 4 days after inoculation, the four groups of five mice were administered a solution containing saline, doxorubicin, PTD, or DOX-PTD (e.g., 0.103×10^−4 mol) via intra-tumor injection or intravenously. The solution was administered once a week until the total volume administered equaled ˜50 μL/mouse. Size measurements of the tumor and the body weight of the mice were taken every other day. A saline solution was used as a control.

MTT cytotoxicity study = type: cell-based; settings: mammalian cells, FIG. 13, read-out: cells survived (viability)
Description: (§3) Cytotoxicity of PTD carriers were evaluated in mammalian cells using 3-[4,5 dimethylthiazol-2-yl]-2,5-diphenyltetrazolium bromide (MTT). After inducing cytotoxicity (˜4 hrs) by routine methods, 10 μl of MTT solution (5.0 mg/ml in PBS, Sigma) was added to each well, and incubated at 37° C. for 3 hrs. The medium was then removed and 200 μl dimethyl sulfoxide (DMSO) was added into each well to dissolve the formazan crystals produced by living cells. The absorbance of the solution was measured at 570 nm. Cell viabilities were calculated using the equation: Viability (%)={Abs570 (sample)/Abs570 control}. A control reaction was run under the same conditions except for the addition of Dox-PTD.

mammalian cells = test: MTT cytotoxicity study; type: cell-based
Description: as §3

[2] = tested on: xenografs of human PC-3 prostate cancer; test: DOX-PTD anti-tumor treatment in vivo study, tumor size; design: species or system nu/nu athymic mice; settings: intra-tumor administration, Dosedox=0.2 mg/kg, FIGS. 14 and 15
Description: as §1, §2

PC-3 cells = test: Cytotoxicity assay, live/dead cell staining; type: cell-based
Description: Prostate cancer cell lines (PC-3 cells) were maintained in 12-F medium containing 10% fetal bovine serum, 100 units/mL penicillin and 100 μg/mL streptomycin at 37° C. under 5% CO2 and 100% humid condition. To avoid confluency due to the short doubling time (˜20 hrs), the cells were split every 3-4 days.
The PC-3 cells were plated in 6-well tissue culture plates (5×10^5 cells/well) and incubated overnight in 12-F medium with 10% FBS. For each well, an aliquot of 200 μl Doxorubicin-protein transduction domain (DOX-PTD) solution at same mole concentration (0.2 mg/per well) was added. The cells were then incubated at 37° C. in 5% CO2 for 2 hrs.
After incubation, the live and dead cells were counted using cell staining analysis according to the protocol provided by the manufacturer. The dead cells stain red while the live cells stain green. The green and red fluorescent signals from the cells were observed under a fluorescent microscope (Olympus, filter 570 nm-605). The percentage of live cells in the cultures was determined from counts of three fields.

B16F0 cells [3] = test: IC50% study; type: cell-based
Description: B16F0 cells (obtained from American Type Culture Collection, ATCC) were split into 96 well plates and incubated at 37° C. under 5% CO2. After 24 hours, BMPC-Pt was added to each well. The fluorescence of each well was measured using two wavelength filters (450 nm and 528 nm) before and several times after BMPC-Pt was added (24, 48, and 72 hours). Using measurements, the fluorescence intensity net increase ratio was calculated and the results are summarized in Table 3 and shown in FIGS. 19 and 20.

B16F0 cells [4] = test: IC50% study; type: cell-based; settings: 96 hours
Hela 705 cells = test: Transduction assay (in vitro), fluorescence microscope; type: cell-based; settings: 30 min at 37° C., Streptavidin-FITC, FIG. 4
Description: The transduction efficiency of compound 9 from Example 1 and compound 11 from Example 2 were analyzed. Hela 705 cells were seeded at 1.5×10^4/well in 96-well plate and cultured overnight (about 70% confluenced). The media was discarded and the cells rinsed with PBS. Biotin-labeled test compounds (dissolved in PBS, pH: 7.4) were applied to culture(s) and incubated for 30 min at 37° C. The media was carefully discarded and the cells rinsed with PBS. The cells were fixed in freshly prepared 4% paraformaldehyde for 10 min at 4° C. The cells were rinsed and incubated with a blocking reagent (10% BSA containing 0.5% Triton X-100 in PBS) for 30 min at 37° C. The cells were again rinsed with PBS and incubated with Streptavidin-FITC for 30 min at room temperature. The cells were then rinsed with PBS and observed under fluorescence microscope.
The transduction activity of the disulfide linked HA compounds 13 and 14 from Example 4 were tested on Hela 705 cells following the procedure as mentioned above. FITC conjugated anti-HA antibody was applied for visualization.

Mouse skin tissue = test: In vivo transdermal delivery assay; settings: nude mice skin, 100 μl of 1 mM in PBS, 30 min, FIG. 9
Description: Compounds 9 and 11 from Examples 1 and 2 were tested in vivo. In vivo evaluation was conducted with a transdermal delivery assay on nude mice (NU/NU ♀). Nude mice (female, 6 weeks old, from Charles River) were anesthetized with 50 μl cocktail of Ketaset 25 mg/ml, Xylazine 5 mg/ml (i.m.). The skin was wiped with saline and a 100 μl solution of the test compounds (1 mM in PBS) was applied. A plastic ring was used to isolate the test solution and vaseline was rubbed outside of the ring. After 30 min incubation, the animal was sacrificed under deep anesthesia and the skin was removed. Mouse skin tissue was immediately embedded in OTC medium, cut into 5 μm on a cryostat and collected on slides, and stored at −70° C. The tissue was fixed in freshly prepared 4% paraformaldehyde in PBS for 10 min at 4° C. The tissue was then rinsed in PBS 2×5 min and incubated with 10% BSA containing 0.5% Triton X-100 in PBS for 30 min at 37° C. The samples were incubated with Streptavidin-FITC (diluted in 1% BSA containing 0.05% Triton X-100 in PBS) overnight at 4° C. […] The samples were rinsed twice in PBS 2×5 min and tap water and mounted with anti-fading mounting medium and observed under fluorescence microscope or confocal imaging analysis.

SMILES | body weight difference between groups [1] | IC50 (B16F0 cells [3]; 24 hours) | IC50 (B16F0 cells [3]; 48 hours) | IC50 (B16F0 cells [3]; 72 hours) | IC50 (B16F0 cells [4]) | further results
COc1cccc2c1C(=O)c1c(O)c3c(c(O)c1C2=O)C[C@@](O)(C(=O)CO)C[C@@H]3O[C@H]1C[C@H](N)[C@H](O)[C@H](C)O1 [DOX, doxorubicin, reference compound] | no significant difference |  |  |  |  | 
COc1cccc2c1C(=O)c1c(O)c3c(c(O)c1C2=O)C[C@@](O)(C(=O)CO)C[C@@H]3O[C@H]1C[C@H](NC(=O)CCC(=O)N[C@@H](CCCNC(=N)N)C(=O)N[C@@H](CCCNC(=N)N)C(=O)NCCCC[C@H](NC(=O)[C@H](CCCNC(=N)N)NC(=O)[C@H](CCCNC(=N)N)NC(C)=O)C(=O)N[C@@H](CCCNC(=N)N)C(=O)N[C@@H](CCCNC(=N)N)C(=O)N[C@@H](CCCNC(=N)N)C(=O)N[C@@H](CCCNC(=N)N)C(N)=O)[C@H](O)[C@H](C)O1 [DOX-PTD] (Ac-RRK([Arg-Arg-Suc-Doxorubicin(3'-N)])RRRR-NH2) | no significant difference |  |  |  |  | viability (MTT cytotoxicity study): < 40%; cytotoxicity (mammalian cells): extremely high; tumor size [2]: increased in size less than the tumor injected with Dox alone; number of live cells (PC-3 cells; 0.2 mg/per well, 2 hrs, FIGS. 11 and 12): less than with Dox alone; penetration into the PC-3 cells (PC-3 cells; inferred from live cell counts): greater penetration into the PC-3 cells compared to Dox alone
CC(=O)N[C@@H](CCCNC(=N)N)C(=O)N[C@@H](CCCNC(=N)N)C(=O)N[C@@H](CCCCNC(=O)[C@H](CCCNC(=N)N)NC(=O)[C@H](CCCNC(=N)N)NC(=O)CCC(=O)NC1CC(=O)[O][Pt]2([NH]C3CCCCC3[NH]2)[O]C1=O)C(=O)N[C@@H](CCCNC(=N)N)C(=O)N[C@@H](CCCNC(=N)N)C(=O)N[C@@H](CCCNC(=N)N)C(=O)N[C@@H](CCCNC(=N)N)C(N)=O (some centres unmarked) [BMPC-Pt] |  | 128 µM | 51.6 µM | 22.3 µM | 12.5 µM | 
N.N.O=C([O-])C1(C(=O)[O-])CCC1.[Pt+2] [Carboplatin, reference compound] |  | 110 µM | 36.5 µM | 24.5 µM | 4.5 µM | 
N=C(N)NCCCC(N)C(=O)NC(CCCNC(=N)N)C(=O)NC(CCCNC(=N)N)C(=O)NCCCCC(NC(=O)C(CCCNC(=N)N)NC(=O)C(CCCNC(=N)N)NC(=O)C(N)CCCNC(=N)N)C(=O)NCCCCC(NC(=O)C(CCCNC(=N)N)NC(=O)C(CCCNC(=N)N)NC(=O)CCCC[C@@H]1SC[C@@H]2NC(=O)N[C@@H]21)C(N)=O (some centres unmarked) [compound 11] |  |  |  |  |  | transduction efficiency compared to vehicle (PBS) (Hela 705 cells): dramatic transduction efficiency; transdermal delivery efficiency compared to vehicle (PBS) (Mouse skin tissue): dramatic transdermal delivery efficiency
